Results taken from patent US11975050B2, “Parathyroid hormone polypeptide conjugates and methods of their use” (The General Hospital Corporation, priority 2018, dated 2024).
Where two headings read alike, the source gives them in different places. Starred links: 1 amine or outer side, 2 acyl side, 3 side chain; linkers in the order of their positions; H or OH if unused. Non-standard residues stand in square brackets, D forms with d. Primed or numbered codes have the meaning given here. No end group written: not given here. K(Palm) = CCCCCCCCCCCCCCCC(=O)NCCCC[C@H](N[*:1])C(=O)[*:2]; PEG2′ = short PEG2 spacer in the linker

Key:
[1] = Blood ionized calcium in mice after injection; type: in vivo; conditions: single dose 10 nmol/kg i.v.
Description: Data are means±SEM; n=6 mice per group.
In Vivo Testing of the Polypeptides Wild-type, ca. 10-week old male C57BL/6J mice were purchased from the Charles River Laboratories (Wilmington, Massachusetts, USA). The origin and method of breeding of Col1-H223R “Jansen's” transgenic mice is described by Calvi et al. (J. Clin. Invest. 107:277-286, 2001). Mice were maintained in facilities operated by the Center for Comparative Research of the Massachusetts General Hospital, and acclimated in the facilities for seven days prior to being used for study. All experimental procedures were approved by the MGH Institutional Animal Care and Use Committee (IACUC). In each study, animals were assigned randomly to treatment groups. Where possible, power calculations established that the number of animals used per study group was sufficient to detect statistically significant differences in intended primary experimental outcomes (i.e., changes in serum Ca and Pi).

[2] = Pharmacokinetic properties in mice, hPTH(1-34) ELISA of plasma
Procedure: (§1) Mice were injected IV via the tail vein or subcutaneously with ligands in vehicle (0.05% Tween 80; 10 mM citrate; 150 mM NaCl; pH 5.0) to give the intended final ligand dose (e.g. 50 nmol/kg body weight). At times immediately before (t=0) and after injection, tail vein blood was collected and analyzed for concentrations of administered peptides or blood ionized calcium (Ca^2+) measured with a RAPIDLAB 348 analyzer (SIEMENS Healthcare Diagnostic, United Kingdom).

[3] = Hypophosphatemic effect (total inorganic phosphorus) in mice; type: in vivo; conditions: as compared to PTH(1-34)
Description: Tail vein blood and spot urine were collected just prior to injection (t=0) and at the indicated times after injection.
Peptide doses for FIGS. 4A and 4B were 10 nmol/kg, while peptide doses were 50 nmol/kg for FIGS. 4C and 4D. T-test vs. vehicle: *p<0.05; PTH vs. Palm: +p<0.05. Mice were CD1 females, age 10 weeks. Data are means±SEM, n=6.

[4] = in vivo; conditions: mouse, sc
Procedure: as §1

[5] = mouse, in vivo, sc
Procedure: as §1

[6] = target: T1, PTH receptor (Homo sapiens, UniProt Q03431); experiment: cAMP signaling in SaOS2/glosensor (SGS-72) cells; type: cell-based; conditions: for Max %: maximum cAMP response relative to PTH(1-34)-2009
T1 construct: endogenous in cells; host or cells: SaOS2-derived SGS-72 cells (human osteoblast line stably transfected with the GloSensor cAMP reporter)
T1 sequence (Q03431 27-593): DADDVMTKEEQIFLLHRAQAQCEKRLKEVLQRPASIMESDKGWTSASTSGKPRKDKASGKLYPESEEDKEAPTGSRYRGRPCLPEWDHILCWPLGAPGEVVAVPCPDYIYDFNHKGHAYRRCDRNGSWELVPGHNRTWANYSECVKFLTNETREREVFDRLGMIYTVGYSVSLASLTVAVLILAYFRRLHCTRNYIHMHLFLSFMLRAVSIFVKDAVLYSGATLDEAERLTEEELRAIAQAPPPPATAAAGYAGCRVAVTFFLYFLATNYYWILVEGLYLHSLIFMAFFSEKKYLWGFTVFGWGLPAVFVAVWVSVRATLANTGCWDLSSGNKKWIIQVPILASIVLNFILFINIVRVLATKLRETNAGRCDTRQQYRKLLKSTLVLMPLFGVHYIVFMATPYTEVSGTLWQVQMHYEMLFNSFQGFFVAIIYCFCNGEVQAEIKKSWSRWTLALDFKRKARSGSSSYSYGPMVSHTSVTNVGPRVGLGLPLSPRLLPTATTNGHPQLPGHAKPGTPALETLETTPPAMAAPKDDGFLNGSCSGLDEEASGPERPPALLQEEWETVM
Procedure: The cells are derived from the human osteoblast cell line, SaOS2 by stable transfection with a glosensor cAMP reporter.
cAMP signaling was assessed in an SaOS2-derived cell line stably expressing the luciferase-based GloSensor™ cAMP reporter (Hattersley et al., Paper presented at: Novel Signaling Mechanisms and Bone Cell Biology 2014; Binkowski et al., Methods in Molecular Biology 756:263-271, 2011). The cells were seeded into 96-well white plates and were assayed 24 to 48 hours post-confluency. Assays were performed at room temperature in CO2-independent culture media (Life Technologies, Corp., Carlsbad, CA) containing 0.1% BSA (CIDB). […] The time at which maximum luminescence (cps) observed with agonist alone, typically at 10-20 minutes after agonist addition, was used to obtain data from wells containing antagonist with or without agonist, to thus generate antagonist ligand dose-response curves. The resulting cps values were then plotted against ligand concentration using GraphPad Prism 7.0 software and a four-parameter logistics curve fitting equation, which yielded parameters of inhibitory potency (pIC50).

half-life [4] [min]	AUC ([4]; 10 nmol/kg) [µM·h]	half-life ([4]; 10 nmol/kg) [min]	total area-under-the-curve [5] [µM·h]	Max % ([6]; means ± SEM) [%]	pEC50 (log molar concentration to attain 50% of maximum response observed with PTH(1-34)-2009) ([6]; SaOS2/glosensor (SGS-72) cells, means ± SEM, n = 5)	EC50 ([6]; SaOS2/glosensor (SGS-72) cells, read-out: EC50, concentration in nM shown below pEC50 (converted)) [nM]	Compound	duration of increase of blood Ca2+ levels [1]	total area-under-the-curve ([2]; mice, single injection 10 mnol/kg s.c.) [µM·h]	AUC ([2]; mouse, plasma, sc, 10 nmol/kg) [µM·h]	Cmax ([2]; mouse, plasma, sc, 10 nmol/kg) [nM]	Tmax ([2]; mouse, plasma, sc, 10 nmol/kg) [min]	half-life ([2]; mouse, plasma, sc, 10 nmol/kg) [min]	hypophosphatemic effects [3]
							CCCCCCCCCCCCCCCC(=O)NCCCC[C@H](NC(=O)[C@H](CCC(=O)O)NC(=O)[C@H](Cc1ccc(O)cc1)NC(=O)[C@H](CCC(=O)O)NC(=O)COCCOCCNC(=O)[C@H](Cc1ccccc1)NC(=O)[C@H](CC(N)=O)NC(=O)[C@H](Cc1c[nH]cn1)NC(=O)[C@@H](NC(=O)[C@H](CC(=O)O)NC(=O)[C@H](CCC(N)=O)NC(=O)[C@H](CC(C)C)NC(=O)[C@H](CCCCN)NC(=O)[C@H](CCCCN)NC(=O)[C@H](CCCNC(=N)N)NC(=O)[C@H](CC(C)C)NC(=O)[C@H](Cc1c[nH]c2ccccc12)NC(=O)[C@H](CCC(=O)O)NC(=O)[C@@H](NC(=O)[C@H](CCCNC(=N)N)NC(=O)[C@H](CCC(=O)O)NC(=O)[C@H](CCSC)NC(=O)[C@H](CO)NC(=O)[C@H](CC(N)=O)NC(=O)[C@H](CC(C)C)NC(=O)[C@H](Cc1c[nH]cn1)NC(=O)[C@H](CCCCN)NC(=O)CNC(=O)[C@H](CC(C)C)NC(=O)[C@H](CC(N)=O)NC(=O)[C@H](Cc1c[nH]cn1)NC(=O)[C@H](CCSC)NC(=O)[C@H](CC(C)C)NC(=O)[C@H](CCC(N)=O)NC(=O)[C@@H](NC(=O)[C@H](CCC(=O)O)NC(=O)[C@H](CO)NC(=O)[C@@H](NC(=O)[C@@H](N)CO)C(C)C)[C@@H](C)CC)C(C)C)C(C)C)C(=O)N[C@@H](CCC(=O)O)C(=O)N[C@@H](Cc1ccc(O)cc1)C(=O)N[C@@H](CCC(=O)O)C(N)=O [Palm-PTH(1-34)-2027, Palm-PTH(1-34)]	at least 24 hours	0.116	0.116	28.1	60	114	prolonged hypophosphatemic effects
12	0.00043	12	0.00043	100 ± 0			CC[C@H](C)[C@H](NC(=O)[C@H](CCC(=O)O)NC(=O)[C@H](CO)NC(=O)[C@@H](NC(=O)[C@@H](N)CO)C(C)C)C(=O)N[C@@H](CCC(N)=O)C(=O)N[C@@H](CC(C)C)C(=O)N[C@@H](CCSC)C(=O)N[C@@H](Cc1cnc[nH]1)C(=O)N[C@@H](CC(N)=O)C(=O)N[C@@H](CC(C)C)C(=O)NCC(=O)N[C@@H](CCCCN)C(=O)N[C@@H](Cc1cnc[nH]1)C(=O)N[C@@H](CC(C)C)C(=O)N[C@@H](CC(N)=O)C(=O)N[C@@H](CO)C(=O)N[C@@H](CCSC)C(=O)N[C@@H](CCC(=O)O)C(=O)N[C@@H](CCCNC(=N)N)C(=O)N[C@H](C(=O)N[C@@H](CCC(=O)O)C(=O)N[C@@H](Cc1c[nH]c2ccccc12)C(=O)N[C@@H](CC(C)C)C(=O)N[C@@H](CCCNC(=N)N)C(=O)N[C@@H](CCCCN)C(=O)N[C@@H](CCCCN)C(=O)N[C@@H](CC(C)C)C(=O)N[C@@H](CCC(N)=O)C(=O)N[C@@H](CC(=O)O)C(=O)N[C@H](C(=O)N[C@@H](Cc1cnc[nH]1)C(=O)N[C@@H](CC(N)=O)C(=O)N[C@@H](Cc1ccccc1)C(N)=O)C(C)C)C(C)C [PTH(1-34)-2009, PTH(1-34)]	≤ 4 h			0.65			
				77 ± 8	8.72 ± 0.15	1.91	W1-Palm-PTH(1-34) (WVSEIQLMHNLGKHLNSMERVEWLRKKLQDVHNF[PEG2′]EYE-{K(Palm)-Glu-Tyr-Glu-NH2}) [Trp1-Palm-PTH(1-34)-2029]							
